Source: paper PMC5587909, “Inhibition of the ATP Synthase Eliminates the Intrinsic Resistance of Staphylococcus aureus towards Polymyxins” (mBio, 2017)
In brackets after ≈: the same amount, converted by molar mass. Bridge positions count the residues as written; N and C are the ends. Square brackets hold non-standard residues; d marks the D form. Peptide text beside a SMILES is read from it. * marks the point of attachment. Ileψ(thiazoline)Cys = CC[C@H](C)[C@H](N)C1=N[C@H](C(=O)*)CS1; dOrn = NCCC[C@@H](N)C(=O)O; X1 = CC[C@H](C)CCCCC(=O)*; Dab = NCC[C@H](N)C(=O)O

Tests used:
[1] = tested on: S. aureus JE2 graR mutant; format: cell-based, Staphylococcus aureus; details: 2-fold broth microdilution in TSB (100 µl), inoculum approx. 5 × 10^5 cells/ml, 37°C, 22 h; graR mutant
Text: (§1) The strains used in this study include S. aureus strain JE2 (plasmid-cured derivative of USA300 LAC) and all derivative strains within the Nebraska Transposon Mutant Library (NTML), consisting of 1,920 unique transposon mutants with inactivation of nonessential genes ([15]). The bursa aurealis transposon used to create the collection contains the resistance cassette ermB, which confers resistance to erythromycin ([15]). Additionally we used S. aureus SA113 and two derivatives, SA113 ΔdltA ([9]) and SA113 ΔmprF ([10]). All bacterial strains were cultured at 37°C in tryptic soy broth (TSB) or on tryptic soy agar (TSA), with antimicrobial agents added as indicated. Two methods have been employed to determine MICs to various antimicrobial agents. (i) A 2-fold broth microdilution assay in TSB (100 µl) with an initial inoculum of approximately 5 × 10^5 cells/ml was employed to determine the MICs of polymyxin B sulfate (Sigma), gallidermin (Santa Cruz Biotechnology), nisin (Sigma), bacitracin (Sigma), and LL-37 (Isca Biochemicals). (ii) An Etest (BioMérieux) performed on TSA plates was employed to determine MICs for polymyxin B, colistin, ciprofloxacin, oxacillin, linezolid, gentamicin, vancomycin, and daptomycin. The MIC was determined upon incubation at 37°C for 22 h. When indicated, the Etest (BioMérieux) was performed on Mueller-Hinton agar plates (cation adjusted for calcium and magnesium).

[2] = tested on: S. aureus JE2 vraG mutant; format: cell-based, Staphylococcus aureus; details: 2-fold broth microdilution in TSB (100 µl), inoculum approx. 5 × 10^5 cells/ml, 37°C, 22 h
Text: as §1

[3] = tested on: S. aureus JE2 (WT); format: cell-based, Staphylococcus aureus; details: 2-fold broth microdilution in TSB (100 µl), inoculum approx. 5 × 10^5 cells/ml, 37°C, 22 h
Text: as §1

[4] = tested on: S. aureus JE2 atpA mutant; format: cell-based, Staphylococcus aureus; details: 2-fold broth microdilution in TSB (100 µl), inoculum approx. 5 × 10^5 cells/ml, 37°C, 22 h
Text: as §1

[5] = tested on: S. aureus JE2 vraF mutant; format: cell-based, Staphylococcus aureus; details: 2-fold broth microdilution in TSB (100 µl), inoculum approx. 5 × 10^5 cells/ml, 37°C, 22 h; vraF mutant
Text: as §1

[6] = tested on: S. aureus JE2 transposon mutant SAUSA300_0918 (diacylglycerol glucosyltransferase); format: cell-based, Staphylococcus aureus; details: Etest on TSA, 37°C, 22 h
Text: (§2) Staphylococcus aureus is intrinsically resistant to the clinically approved cationic antimicrobial peptides polymyxin B (PMB) and colistin ([1], [16]). […] The MIC for PMB was subsequently determined using Etests for the identified mutants. Nineteen mutants were confirmed to be at least 2-fold more susceptible than the WT (Table 1). As expected, we identified transposon insertions in graS, graR, vraF, and vraG, corroborating previous work on these determinants in S. aureus in relation to increased PMB susceptibility ([12]).
as §1

[7] = tested on: S. aureus JE2 vraS transposon mutant (SAUSA300_1866); format: cell-based, Staphylococcus aureus; details: Etest on TSA, 37°C, 22 h
Text: as §2, §1

[8] = tested on: S. aureus JE2 yajC transposon mutant (SAUSA300_1594); format: cell-based, Staphylococcus aureus; details: Etest on TSA, 37°C, 22 h
Text: as §2, §1

[9] = tested on: S. aureus JE2 transposon mutant SAUSA300_0980 (hypothetical protein); format: cell-based, Staphylococcus aureus; details: Etest on TSA, 37°C, 22 h
Text: as §2, §1

[10] = tested on: S. aureus JE2 atpH transposon mutant (SAUSA300_2061); format: cell-based, Staphylococcus aureus; details: Etest on TSA, 37°C, 22 h; atpH mutant
Text: as §2, §1

[11] = tested on: S. aureus JE2 trkA transposon mutant (SAUSA300_0988); format: cell-based, Staphylococcus aureus; details: Etest on TSA, 37°C, 22 h
Text: as §2, §1

[12] = tested on: S. aureus JE2 cbiO transposon mutant (SAUSA300_2176); format: cell-based, Staphylococcus aureus; details: Etest on TSA, 37°C, 22 h
Text: as §2, §1

[13] = tested on: S. aureus JE2 lspA transposon mutant (SAUSA300_1089); format: cell-based, Staphylococcus aureus; details: Etest on TSA, 37°C, 22 h
Text: as §2, §1

[14] = tested on: S. aureus JE2 transposon mutant SAUSA300_1802 (hypothetical protein); format: cell-based, Staphylococcus aureus; details: Etest on TSA, 37°C, 22 h
Text: as §2, §1

[15] = tested on: S. aureus JE2 graS transposon mutant (SAUSA300_0646); format: cell-based, Staphylococcus aureus; details: Etest on TSA, 37°C, 22 h; graS mutant
Text: as §2, §1

[16] = tested on: S. aureus JE2 transposon mutant SAUSA300_1785 (putative ABC transporter protein EcsB); format: cell-based, Staphylococcus aureus; details: Etest on TSA, 37°C, 22 h
Text: as §2, §1

[17] = tested on: S. aureus JE2 atpG transposon mutant (SAUSA300_2059); format: cell-based, Staphylococcus aureus; details: Etest on TSA, 37°C, 22 h; atpG mutant
Text: as §2, §1

[18] = tested on: S. aureus JE2 transposon mutant SAUSA300_1495 (hypothetical protein); format: cell-based, Staphylococcus aureus; details: Etest on TSA, 37°C, 22 h
Text: as §2, §1

[19] = tested on: S. aureus JE2 transposon mutant SAUSA300_1254 (hypothetical protein); format: cell-based, Staphylococcus aureus; details: Etest on TSA, 37°C, 22 h
Text: as §2, §1

[20] = tested on: S. aureus JE2 atpB transposon mutant (SAUSA300_2064); format: cell-based, Staphylococcus aureus; details: Etest on TSA, 37°C, 22 h; atpB mutant
Text: as §2, §1

[21] = tested on: S. aureus JE2 vraG transposon mutant (SAUSA300_0648); assay: microbe, parasite or virus in culture; details: Etest on TSA, 37°C, 22 h, vraG mutant
Text: (§3) Staphylococcus aureus is intrinsically resistant to the clinically approved cationic antimicrobial peptides polymyxin B (PMB) and colistin ([1], [16]). […] The MIC for PMB was subsequently determined using Etests for the identified mutants.
as §1, with “(ii) An Etest (BioMérieux) performed on TSA plates was employed to determine MICs for polymyxin B, colistin, ciprofloxacin, oxacillin, linezolid, gentamicin, vancomycin, and daptomycin.” left out, “When indicated, the Etest (BioMérieux) was performed on Mueller-Hinton agar plates (cation adjusted for calcium and magnesium).” left out

[22] = tested on: S. aureus JE2 (wild type); assay: microbe, parasite or virus in culture; details: Etest on TSA, 37°C, 22 h
Text: as §3
as §1, with “(ii) An Etest (BioMérieux) performed on TSA plates was employed to determine MICs for polymyxin B, colistin, ciprofloxacin, oxacillin, linezolid, gentamicin, vancomycin, and daptomycin.” left out, “When indicated, the Etest (BioMérieux) was performed on Mueller-Hinton agar plates (cation adjusted for calcium and magnesium).” left out

[23] = tested on: S. aureus JE2 graR transposon mutant (SAUSA300_0645); assay: microbe, parasite or virus in culture; details: Etest on TSA, 37°C, 22 h, graR mutant
Text: as §3
as §1, with “(ii) An Etest (BioMérieux) performed on TSA plates was employed to determine MICs for polymyxin B, colistin, ciprofloxacin, oxacillin, linezolid, gentamicin, vancomycin, and daptomycin.” left out, “When indicated, the Etest (BioMérieux) was performed on Mueller-Hinton agar plates (cation adjusted for calcium and magnesium).” left out

[24] = tested on: S. aureus JE2 vraF transposon mutant (SAUSA300_0647); assay: microbe, parasite or virus in culture; details: Etest on TSA, 37°C, 22 h, vraF mutant
Text: as §3
as §1, with “(ii) An Etest (BioMérieux) performed on TSA plates was employed to determine MICs for polymyxin B, colistin, ciprofloxacin, oxacillin, linezolid, gentamicin, vancomycin, and daptomycin.” left out, “When indicated, the Etest (BioMérieux) was performed on Mueller-Hinton agar plates (cation adjusted for calcium and magnesium).” left out

[25] = tested on: S. aureus JE2 atpA transposon mutant (SAUSA300_2060); assay: microbe, parasite or virus in culture; details: Etest on TSA, 37°C, 22 h, atpA mutant
Text: as §3
as §1, with “(ii) An Etest (BioMérieux) performed on TSA plates was employed to determine MICs for polymyxin B, colistin, ciprofloxacin, oxacillin, linezolid, gentamicin, vancomycin, and daptomycin.” left out, “When indicated, the Etest (BioMérieux) was performed on Mueller-Hinton agar plates (cation adjusted for calcium and magnesium).” left out

[26] = conventional antibiotics (Table 3)

## CC[C@H](C)[C@H](N)C1=N[C@H](C(=O)N[C@@H](CC(C)C)C(=O)N[C@H](CCC(=O)O)C(=O)N[C@H](C(=O)N[C@H]2CCCCNC(=O)[C@H](CC(N)=O)NC(=O)[C@@H](CC(=O)O)NC(=O)[C@H](Cc3cnc[nH]3)NC(=O)[C@@H](Cc3ccccc3)NC(=O)[C@H]([C@@H](C)CC)NC(=O)[C@@H](CCCN)NC2=O)[C@@H](C)CC)CS1 [Bacitracin, bacitracin] ({Ileψ(thiazoline)Cys}-L[dE]IK[dOrn]I[dF]H[dD]N; lactam 4-C (inferred); N-terminus assumed)
[1]
  MIC, graR: 128 µg/mL (≈ 90 µM)
[2]
  MIC, vraG: 256 µg/mL (≈ 180 µM)
[3]
  MIC, WT: 256 µg/mL (≈ 180 µM)
[4]
  MIC, atpA: 128 µg/mL (≈ 90 µM)
[5]
  MIC, vraF: 256 µg/mL (≈ 180 µM)

## CC[C@H](C)CCCCC(=O)N[C@@H](CCN)C(=O)N[C@H](C(=O)N[C@@H](CCN)C(=O)N[C@H]1CCNC(=O)[C@H]([C@@H](C)O)NC(=O)[C@H](CCN)NC(=O)[C@H](CCN)NC(=O)[C@H](CC(C)C)NC(=O)[C@@H](CC(C)C)NC(=O)[C@H](CCN)NC1=O)[C@@H](C)O [Colistin, colistin] (X1-[Dab]T[Dab][Dab][Dab][dL]L[Dab][Dab]T; lactam 4-C (inferred); N-terminus assumed)
[6]
  MIC: >256 µg/mL
[7]
  MIC: 256 µg/mL (≈ 219 µM)
[8]
  MIC: 256 µg/mL (≈ 219 µM)
[9]
  MIC: >256 µg/mL
[10]
  MIC: 48 µg/mL (≈ 41 µM)
[11]
  MIC: 128 µg/mL (≈ 109 µM)
[12]
  MIC: 64 µg/mL (≈ 54.7 µM)
[13]
  MIC: 256 µg/mL (≈ 219 µM)
[14]
  MIC: >256 µg/mL
[15]
  MIC: 32 µg/mL (≈ 27.4 µM)
[16]
  MIC: >256 µg/mL
[17]
  MIC: 48 µg/mL (≈ 41 µM)
[18]
  MIC: >256 µg/mL
[19]
  MIC: 192 µg/mL (≈ 164 µM)
[20]
  MIC: 48 µg/mL (≈ 41 µM)
[21]
  MIC: 24 µg/mL (≈ 20.5 µM)
[22]; wild type S. aureus JE2
  MIC: >256 µg/mL
[23]
  MIC: 32 µg/mL (≈ 27.4 µM)
[24]
  MIC: 32 µg/mL (≈ 27.4 µM)
[25]
  MIC: 48 µg/mL (≈ 41 µM)

## CCCCCCCCCC(=O)N[C@@H](Cc1c[nH]c2ccccc12)C(=O)N[C@H](CC(N)=O)C(=O)N[C@@H](CC(=O)O)C(=O)N[C@@H]1C(=O)NCC(=O)N[C@@H](CCCN)C(=O)N[C@@H](CC(=O)O)C(=O)N[C@H](C)C(=O)N[C@@H](CC(=O)O)C(=O)NCC(=O)N[C@H](CO)C(=O)N[C@@H]([C@H](C)CC(=O)O)C(=O)N[C@@H](CC(=O)c2ccccc2N)C(=O)O[C@@H]1C [Daptomycin, daptomycin]
[21]; [26]
  MIC, vraG: 0.25 µg/mL (≈ 0.154 µM)
[22]; conventional antibiotics (Table 3), WT JE2
  MIC, WT: 0.25 µg/mL (≈ 0.154 µM)
[23]; [26]
  MIC, graR: 0.19 µg/mL (≈ 0.117 µM)
[24]; [26]
  MIC, vraF: 0.25 µg/mL (≈ 0.154 µM)
[25]; [26]
  MIC, atpA: 0.250 µg/mL (≈ 0.154 µM)
